From ChEMBL document CHEMBL5226373, “Dichapetalins from the Twigs of Dichapetalum longipetalum with Cytotoxic Activities” (J Nat Prod, 2023)
Where a name gives a salt, the structure may show the parent alone.

Columns and labels:
Assay type in all cases: functional, cell-based
[1] = system: HL-60; assay: Cytotoxicity against human HL-60 cells assessed as inhibition of cell growth by CCK-8 assay
[2] = system: A549; assay: Cytotoxicity against human A549 cells assessed as inhibition of cell growth by CCK-8 assay
[3] = system: MIA PaCa-2; assay: Cytotoxicity against human MIA PaCa-2 cells assessed as inhibition of cell growth by CCK-8 assay
[4] = system: SU.86.86; assay: Cytotoxicity against human SU-86-86 cells assessed as inhibition of cell growth by CCK-8 assay
[5] = system: YAPC; assay: Cytotoxicity against human YAPC cells assessed as inhibition of cell growth by CCK-8 assay

## C/C(=C\[C@@H]1OC(=O)[C@](O)([C@@H]2CC[C@]34C[C@]23C=C[C@@H]2[C@@]3(C)CC=C(/C=C/c5ccccc5)C(C)(C)[C@@H]3C[C@@H](O)[C@]24C)[C@H]1O)CO
[1]
  IC50: 1000 nM
[2]
  IC50: 3800 nM
[3]
  IC50: 960 nM

## C/C(=C\[C@@H]1C[C@@](O)([C@@H]2CC[C@]34C[C@]23C=C[C@@H]2[C@@]3(C)CC=C(/C=C/c5ccccc5)C(C)(C)[C@@H]3CC(=O)[C@]24C)C(=O)O1)CO
[1]
  IC50: 1700 nM
[2]
  IC50: 2200 nM
[3]
  IC50: 770 nM

## COc1ccc([C@@H]2C=C3[C@H](C[C@]4(C)[C@H]5C=C[C@]67C[C@]6(CC[C@H]7[C@H]6CO[C@@H](/C=C(\C)CO)[C@@H]6O)[C@]5(C)[C@H](O)C[C@H]4C3(C)C)OO2)cc1
[1]
  IC50: > 10000 nM
[2]
  IC50: > 10000 nM

## C/C(=C\[C@H]1C[C@@](O)([C@@H]2CC[C@]34C[C@]23CC[C@@H]2[C@@]3(C)Cc5oc(-c6ccccc6)cc5C(C)(C)[C@@H]3C[C@H](O)[C@]24C)C(=O)O1)CO
[1]
  IC50: > 10000 nM
[2]
  IC50: > 10000 nM

## C/C(=C\[C@H]1C[C@@H]([C@@H]2CC[C@]34C[C@]23C=C[C@@H]2[C@@]3(C)CC=C(/C=C/c5ccccc5)C(C)(C)[C@@H]3C[C@@H](O)[C@]24C)C(=O)O1)CO
[1]
  IC50: 350 nM
[2]
  IC50: 2800 nM
[3]
  IC50: 670 nM
[4]
  IC50: 1600 nM
[5]
  IC50: 6700 nM

## C/C(=C\[C@H]1C[C@@](O)([C@@H]2CC[C@]34C[C@]23C=C[C@@H]2[C@@]3(C)CC=C(/C=C\c5ccccc5)C(C)(C)[C@@H]3CC(=O)[C@]24C)C(=O)O1)CO
[1]
  IC50: 1300 nM
[2]
  IC50: 3700 nM
[3]
  IC50: 2800 nM

## C/C(=C\[C@@H]1OC(=O)[C@H]([C@@H]2CC[C@]34C[C@]23C=C[C@@H]2[C@@]3(C)CC(=O)/C(=C\C(=O)c5ccccc5)C(C)(C)[C@@H]3C[C@H](O)[C@]24C)[C@H]1O)CO
[1]
  IC50: > 10000 nM
[2]
  IC50: > 10000 nM

## C/C(=C\[C@@H]1OC(=O)[C@H]([C@@H]2CC[C@]34C[C@]23C=C[C@@H]2[C@@]3(C)CC=C(/C=C/c5ccccc5)C(C)(C)[C@@H]3C[C@H](O)[C@]24C)[C@H]1O)CO
[1]
  IC50: 280 nM
[2]
  IC50: 1800 nM
[3]
  IC50: 930 nM

## COc1ccc([C@H]2C=C3[C@@H](C[C@]4(C)[C@H]5C=C[C@]67C[C@]6(CC[C@H]7[C@H]6CO[C@@H](/C=C(\C)CO)[C@@H]6O)[C@]5(C)[C@H](O)C[C@H]4C3(C)C)OO2)cc1
[1]
  IC50: > 10000 nM
[2]
  IC50: > 10000 nM

## C/C(=C\[C@H]1C[C@@](O)([C@@H]2CC[C@]34C[C@]23C=C[C@@H]2[C@@]3(C)CC(=O)/C(=C\C(=O)c5ccccc5)C(C)(C)[C@@H]3C[C@@H](O)[C@]24C)C(=O)O1)CO
[1]
  IC50: > 10000 nM
[2]
  IC50: 9400 nM

## COc1ccc(C(=O)[C@@H]2O[C@]23C(=O)C[C@]2(C)[C@H]4C=C[C@]56C[C@]5(CC[C@H]6[C@H]5C(=O)O[C@@H](/C=C(\C)CO)[C@@H]5O)[C@]4(C)[C@H](O)C[C@H]2C3(C)C)cc1
[1]
  IC50: > 10000 nM
[2]
  IC50: > 10000 nM

## CC(=O)O[C@@]1(C)CO[C@@]2(C1)OC(=O)[C@H]([C@@H]1CC[C@]34C[C@]13C=C[C@@H]1[C@@]3(C)CC=C5C[C@@H](c6ccccc6)OC[C@]5(C)[C@@H]3C[C@H](O)[C@]14C)[C@H]2O
[1]
  IC50: > 10000 nM
[2]
  IC50: 3300 nM

## C/C(=C\[C@@H]1OC(=O)[C@H]([C@@H]2CC[C@]34C[C@]23C=C[C@@H]2[C@@]3(C)CC=C(/C=C\c5ccccc5)C(C)(C)[C@@H]3C[C@@H](O)[C@]24C)[C@H]1O)CO
[1]
  IC50: 3300 nM
[2]
  IC50: 9200 nM
[3]
  IC50: > 10000 nM

## C/C(=C\[C@H]1C[C@@](O)([C@@H]2CC[C@]34C[C@]23C=C[C@@H]2[C@@]3(C)CC=C5C[C@@H](c6ccccc6)OC[C@]5(C)[C@@H]3C[C@@H](O)[C@]24C)C(=O)O1)CO
[1]
  IC50: > 10000 nM
[2]
  IC50: 1100 nM

## COc1ccc(/C=C/C2=CC[C@]3(C)[C@H]4C=C[C@]56C[C@]5(CC[C@H]6[C@H]5C(=O)O[C@@H](/C=C(\C)CO)[C@@H]5O)[C@]4(C)[C@H](O)C[C@H]3C2(C)C)cc1
[1]
  IC50: 360 nM
[2]
  IC50: 1200 nM
[3]
  IC50: 390 nM
[4]
  IC50: 1700 nM
[5]
  IC50: > 10000 nM

## COc1cccc2c1C(=O)c1c(O)c3c(c(O)c1C2=O)C[C@@](O)(C(=O)CO)C[C@@H]3O[C@H]1C[C@H](N)[C@H](O)[C@H](C)O1 [DOXORUBICIN HYDROCHLORIDE]
[3]
  IC50: 250 nM
[4]
  IC50: 330 nM
[5]
  IC50: 310 nM
